Results reported in PubChem BioAssay AID248 (DTP/NCI, 2004).
Values joined by “and” are separate entries in the source; they are usually repeats but may differ in a detail not shown here. Equal values may be shown once. Inconclusive results and toxic doses are left out. No stated cut-off is given here; in the data, active means T/C of 150% or more; inactive means T/C below 125%.

Tested on: L1210 leukemia ip in BDF1 mice, survival T/C
Assay: NCI In Vivo Anticancer Drug Screen. Data for tumor model L1210 Leukemia (intraperitoneal) in B6D2F1 (BDF1) mice
Details: higher = longer survival
Outline: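 Survival endpoint. Drug-treated group vs vehicle group, expressed as T divided by C. Tumor passaged by transplantation.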

Measured: T/C

O=C1OC(C(O)CO)C(O)=C1O (configuration not stated)
inactive: endpoint: mean survival time, dose: 0.05 mg/kg/injection, schedule: Q01DX005 (iv), vehicle: saline 98 % of control | endpoint: mean survival time, dose: 0.05 mg/kg/injection, schedule: Q01DX009 (oral), vehicle: saline 102 % of control | endpoint: mean survival time, dose: 0.1 mg/kg/injection, schedule: Q01DX005 (iv), vehicle: saline 97 % of control | endpoint: mean survival time, dose: 0.1 mg/kg/injection, schedule: Q01DX009 (ip), vehicle: saline 95 % of control | endpoint: mean survival time, dose: 0.1 mg/kg/injection, schedule: Q01DX009 (oral), vehicle: saline 98 % of control | endpoint: mean survival time, dose: 0.1 mg/kg/injection, schedule: Q01DX009 (sc), vehicle: saline 98 % of control | endpoint: mean survival time, dose: 0.12 mg/kg/injection, schedule: Q01DX009 (ip), vehicle: saline 100 % of control | endpoint: mean survival time, dose: 0.13 mg/kg/injection, schedule: Q01DX009 (ip), vehicle: saline 100 % of control | endpoint: mean survival time, dose: 0.2 mg/kg/injection, schedule: Q01DX005 (iv), vehicle: saline 102 % of control | endpoint: mean survival time, dose: 0.2 mg/kg/injection, schedule: Q01DX009 (im), vehicle: saline 98 % of control | endpoint: mean survival time, dose: 0.2 mg/kg/injection, schedule: Q01DX009 (ip), vehicle: saline 101 % of control | endpoint: mean survival time, dose: 0.39 mg/kg/injection, schedule: Q01DX005 (iv), vehicle: saline 95 % of control | endpoint: mean survival time, dose: 0.39 mg/kg/injection, schedule: Q01DX009 (im), vehicle: saline 95 % of control | endpoint: mean survival time, dose: 0.39 mg/kg/injection, schedule: Q01DX009 (ip), vehicle: saline 95 % of control | endpoint: mean survival time, dose: 0.39 mg/kg/injection, schedule: Q01DX009 (oral), vehicle: saline 98 % of control | endpoint: mean survival time, dose: 0.5 mg/kg/injection, schedule: Q01DX001 (ip), vehicle: saline 97 % of control | endpoint: mean survival time, dose: 0.5 mg/kg/injection, schedule: Q01DX009 (ip), vehicle: saline 96 % of control and 101 % of control | endpoint: mean survival time, dose: 0.78 mg/kg/injection, schedule: Q01DX005 (iv), vehicle: saline 98 % of control | endpoint: mean survival time, dose: 0.78 mg/kg/injection, schedule: Q01DX009 (im), vehicle: saline 93 % of control | endpoint: mean survival time, dose: 0.78 mg/kg/injection, schedule: Q01DX009 (ip), vehicle: saline 102 % of control | endpoint: mean survival time, dose: 0.78 mg/kg/injection, schedule: Q01DX009 (oral), vehicle: saline 99 % of control | endpoint: mean survival time, dose: 1.0 mg/kg/injection, schedule: Q01DX001 (ip), vehicle: saline 100 % of control and 101 % of control | endpoint: mean survival time, dose: 1.0 mg/kg/injection, schedule: Q01DX009 (ip), vehicle: saline 95 % of control and 101 % of control | endpoint: mean survival time, dose: 1.56 mg/kg/injection, schedule: Q01DX005 (iv), vehicle: saline 98 % of control | endpoint: mean survival time, dose: 1.56 mg/kg/injection, schedule: Q01DX009 (im), vehicle: saline 100 % of control | endpoint: mean survival time, dose: 1.56 mg/kg/injection, schedule: Q01DX009 (ip), vehicle: saline 93 % of control | endpoint: mean survival time, dose: 1.56 mg/kg/injection, schedule: Q01DX009 (oral), vehicle: saline 94 % of control | endpoint: mean survival time, dose: 2.0 mg/kg/injection, schedule: Q01DX001 (ip), vehicle: saline 101 % of control and 103 % of control | endpoint: mean survival time, dose: 2.0 mg/kg/injection, schedule: Q01DX009 (ip), vehicle: saline 95 % of control and 97 % of control | endpoint: mean survival time, dose: 3.12 mg/kg/injection, schedule: Q01DX005 (iv), vehicle: saline 95 % of control | endpoint: mean survival time, dose: 3.12 mg/kg/injection, schedule: Q01DX009 (im), vehicle: saline 95 % of control | endpoint: mean survival time, dose: 3.12 mg/kg/injection, schedule: Q01DX009 (oral), vehicle: saline 93 % of control | endpoint: mean survival time, dose: 3.12 mg/kg/injection, schedule: Q01DX009 (sc), vehicle: saline 96 % of control | endpoint: mean survival time, dose: 4.0 mg/kg/injection, schedule: Q01DX001 (ip), vehicle: saline 101 % of control and 104 % of control | endpoint: mean survival time, dose: 4.0 mg/kg/injection, schedule: Q01DX009 (ip), vehicle: saline 94 % of control and 101 % of control | endpoint: mean survival time, dose: 6.25 mg/kg/injection, schedule: Q01DX009 (im), vehicle: saline 98 % of control | endpoint: mean survival time, dose: 6.25 mg/kg/injection, schedule: Q01DX009 (ip), vehicle: saline 95 % of control | endpoint: mean survival time, dose: 6.25 mg/kg/injection, schedule: Q01DX009 (oral), vehicle: saline 98 % of control | endpoint: mean survival time, dose: 6.25 mg/kg/injection, schedule: Q01DX009 (sc), vehicle: saline 102 % of control | endpoint: mean survival time, dose: 8.0 mg/kg/injection, schedule: Q01DX001 (ip), vehicle: saline 100 % of control | endpoint: mean survival time, dose: 8.0 mg/kg/injection, schedule: Q01DX009 (ip), vehicle: saline 95 % of control and 97 % of control | endpoint: mean survival time, dose: 12.5 mg/kg/injection, schedule: Q01DX009 (im), vehicle: saline 100 % of control | endpoint: mean survival time, dose: 12.5 mg/kg/injection, schedule: Q01DX009 (ip), vehicle: saline 102 % of control | endpoint: mean survival time, dose: 12.5 mg/kg/injection, schedule: Q01DX009 (oral), vehicle: saline 100 % of control | endpoint: mean survival time, dose: 12.5 mg/kg/injection, schedule: Q01DX009 (sc), vehicle: saline 94 % of control | endpoint: mean survival time, dose: 16.0 mg/kg/injection, schedule: Q01DX001 (ip), vehicle: saline 94 % of control | endpoint: mean survival time, dose: 16.0 mg/kg/injection, schedule: Q01DX009 (ip), vehicle: saline 101 % of control | endpoint: mean survival time, dose: 25.0 mg/kg/injection, schedule: Q01DX009 (ip), vehicle: saline 95 % of control | endpoint: mean survival time, dose: 25.0 mg/kg/injection, schedule: Q01DX009 (sc), vehicle: saline 102 % of control | endpoint: mean survival time, dose: 32.0 mg/kg/injection, schedule: Q01DX001 (ip), vehicle: saline 97 % of control | endpoint: mean survival time, dose: 32.0 mg/kg/injection, schedule: Q01DX009 (ip), vehicle: saline 103 % of control | endpoint: mean survival time, dose: 37.5 mg/kg/injection, schedule: Q01DX009 (ip), vehicle: saline 98 % of control | endpoint: mean survival time, dose: 50.0 mg/kg/injection, schedule: Q01DX005 (iv), vehicle: saline 102 % of control | endpoint: mean survival time, dose: 50.0 mg/kg/injection, schedule: Q01DX009 (im), vehicle: saline 96 % of control | endpoint: mean survival time, dose: 50.0 mg/kg/injection, schedule: Q01DX009 (ip), vehicle: saline 96 % of control | endpoint: mean survival time, dose: 50.0 mg/kg/injection, schedule: Q01DX009 (oral), vehicle: saline 100 % of control | endpoint: mean survival time, dose: 64.0 mg/kg/injection, schedule: Q01DX001 (ip), vehicle: saline 97 % of control and 101 % of control | endpoint: mean survival time, dose: 100.0 mg/kg/injection, schedule: Q01DX001 (ip), vehicle: saline 96 % of control | endpoint: mean survival time, dose: 100.0 mg/kg/injection, schedule: Q01DX005 (iv), vehicle: saline 97 % of control | endpoint: mean survival time, dose: 100.0 mg/kg/injection, schedule: Q01DX009 (im), vehicle: saline 96 % of control | endpoint: mean survival time, dose: 100.0 mg/kg/injection, schedule: Q01DX009 (ip), vehicle: saline 93 % of control and 98 % of control | endpoint: mean survival time, dose: 100.0 mg/kg/injection, schedule: Q01DX009 (oral), vehicle: saline 103 % of control | endpoint: mean survival time, dose: 100.0 mg/kg/injection, schedule: Q04DX003 (ip), vehicle: saline 96 % of control | endpoint: mean survival time, dose: 150.0 mg/kg/injection, schedule: Q03HX024 (ip), vehicle: saline 93 % of control | endpoint: mean survival time, dose: 200.0 mg/kg/injection, schedule: Q01DX001 (ip), vehicle: saline 104 % of control | endpoint: mean survival time, dose: 200.0 mg/kg/injection, schedule: Q01DX005 (iv), vehicle: saline 102 % of control | endpoint: mean survival time, dose: 200.0 mg/kg/injection, schedule: Q01DX009 (im), vehicle: saline 98 % of control | endpoint: mean survival time, dose: 200.0 mg/kg/injection, schedule: Q01DX009 (ip), vehicle: saline 101 % of control | endpoint: mean survival time, dose: 200.0 mg/kg/injection, schedule: Q01DX009 (oral), vehicle: saline 96 % of control | endpoint: mean survival time, dose: 300.0 mg/kg/injection, schedule: Q01DX009 (ip), vehicle: saline 97 % of control | endpoint: mean survival time, dose: 400.0 mg/kg/injection, schedule: Q01DX001 (ip), vehicle: saline 93 % of control | endpoint: mean survival time, dose: 400.0 mg/kg/injection, schedule: Q01DX005 (iv), vehicle: saline 101 % of control | endpoint: mean survival time, dose: 400.0 mg/kg/injection, schedule: Q01DX009 (im), vehicle: saline 102 % of control | endpoint: mean survival time, dose: 400.0 mg/kg/injection, schedule: Q01DX009 (ip), vehicle: saline 93 % of control and 95 % of control and 102 % of control | endpoint: mean survival time, dose: 400.0 mg/kg/injection, schedule: Q01DX009 (oral), vehicle: saline 98 % of control | endpoint: mean survival time, dose: 800.0 mg/kg/injection, schedule: Q01DX001 (ip), vehicle: saline 94 % of control | endpoint: mean survival time, dose: 800.0 mg/kg/injection, schedule: Q01DX005 (iv), vehicle: saline 98 % of control | endpoint: mean survival time, dose: 800.0 mg/kg/injection, schedule: Q01DX009 (im), vehicle: saline 93 % of control | endpoint: mean survival time, dose: 800.0 mg/kg/injection, schedule: Q01DX009 (oral), vehicle: saline 94 % of control | endpoint: mean survival time, dose: 1200.0 mg/kg/injection, schedule: Q01DX001 (ip), vehicle: saline 100 % of control | endpoint: mean survival time, dose: 1600.0 mg/kg/injection, schedule: Q01DX001 (ip), vehicle: saline 100 % of control | endpoint: mean survival time, dose: 1600.0 mg/kg/injection, schedule: Q01DX009 (im), vehicle: saline 98 % of control | endpoint: mean survival time, dose: 1600.0 mg/kg/injection, schedule: Q01DX009 (oral), vehicle: saline 96 % of control | endpoint: median survival time, dose: 500.0 mg/kg/injection, schedule: Q01DX001 (oral), vehicle: water 100 % of control | endpoint: median survival time, dose: 1000.0 mg/kg/injection, schedule: Q01DX001 (oral), vehicle: water 100 % of control | endpoint: median survival time, dose: 1500.0 mg/kg/injection, schedule: Q01DX001 (oral), vehicle: water 94 % of control | endpoint: median survival time, dose: 3000.0 mg/kg/injection, schedule: Q01DX001 (oral), vehicle: water 100 % of control
